Measured values as given in US20240294517A1, “2-[3-[1 [(QUINAZOLIN-4-YL)AMINO]ETHYL]PYRAZIN-2-YL]THIAZOLE-5-CARBONITRILE DERIVATIVES AND SIMILAR COMPOUNDS AS PESTICIDES” (SYNGENTA CROP PROTECTION AG, priority 2021, published 2024).

Experiments:
Plutella xylostella = assay: Activity against Plutella xylostella (diamond back moth), artificial diet; assay type: in vivo; conditions: for percent effect (mortality or growth inhibition) at 200 ppm: 192 h, application rate 200 ppm, eggs, 8 days after infestation, read-out: effect in at least one of the two categories (mortality or growth inhibition); for mortality at 12.5 ppm: concentration 12.5 ppm
Description: 24-well microtiter plates with artificial diet were treated with aqueous test solutions prepared from 10′000 ppm DMSO stock solutions by pipetting. After drying, Plutella eggs were pipetted through a plastic stencil onto a gel blotting paper and the plate was closed with it. The samples were assessed for mortality and growth inhibition in comparison to untreated samples 8 days after infestation.
(§1) Activity of compound P5 according to the preparatory examples and of compound P.118 from WO 21/083936 against Plutella xylostella ([…]) and Diabrotica balteata (Example B2) is summarized in Table B9.

Diabrotica balteata = assay: Activity against Diabrotica balteata (corn root worm), sprayed maize sprouts; assay type: in vivo; conditions: for percent effect (mortality or growth inhibition) at 200 ppm: 96 h, application rate 200 ppm, L2 larvae, 4 days after infestation, read-out: effect in at least one of the two categories (mortality or growth inhibition); for mortality at 3.125 ppm: concentration 3.125 ppm
Description: Maize sprouts placed onto an agar layer in 24-well microtiter plates were treated with aqueous test solutions prepared from 10′000 ppm DMSO stock solutions by spraying. After drying, the plates were infested with L2 larvae (6 to 10 per well). The samples were assessed for mortality and growth inhibition in comparison to untreated samples 4 days after infestation.
as §1

Spodoptera littoralis = assay: Activity against Spodoptera littoralis (Egyptian cotton leaf worm), sprayed cotton leaf discs; assay type: in vivo; conditions: foliar, 72 h, application rate 200 ppm, L1 larvae, 3 days after infestation
Description: Cotton leaf discs were placed onto agar in 24-well microtiter plates and sprayed with aqueous test solutions prepared from 10′000 ppm DMSO stock solutions. After drying the leaf discs were infested with five L1 larvae. The samples were assessed for mortality, anti-feeding effect, and growth inhibition in comparison to untreated samples 3 days after infestation. Control of Spodoptera littoralis by a test sample is given when at least one of the categories mortality, anti-feedant effect, and growth inhibition is higher than the untreated sample.

Chilo suppressalis = assay: Activity against Chilo suppressalis (striped rice stemborer), artificial diet in 24-well plates; assay type: in vivo; conditions: 144 h, application rate 200 ppm, L2 larvae, 6 days after infestation
Description: 24-well microtiter plates with artificial diet were treated with aqueous test solutions prepared from 10′000 ppm DMSO stock solutions by pipetting. After drying, the plates were infested with L2 larvae (6-8 per well). The samples were assessed for mortality, anti-feeding effect, and growth inhibition in comparison to untreated samples 6 days after infestation. Control of Chilo suppressalis by a test sample is given when at least one of the categories mortality, anti-feedant effect, and growth inhibition is higher than the untreated sample.

Euschistus heros = assay: Activity against Euschistus heros (neotropical brown stink bug), sprayed soybean leaves; assay type: in vivo; conditions: 120 h, application rate 200 ppm, N2 nymphs, 5 days after infestation, read-out: effect in at least one of the two categories (mortality or growth inhibition)
Description: Soybean leaves on agar in 24-well microtiter plates were sprayed with aqueous test solutions prepared from 10′000 ppm DMSO stock solutions. After drying the leaves were infested with N2 nymphs. The samples were assessed for mortality and growth inhibition in comparison to untreated samples 5 days after infestation.

SMILES	percent effect (mortality or growth inhibition) at 200 ppm (Plutella xylostella)	percent effect (mortality or growth inhibition) at 200 ppm (Diabrotica balteata)	percent control (mortality, anti-feedant effect or growth inhibition) at 200 ppm (Spodoptera littoralis)	percent control (mortality, anti-feedant effect or growth inhibition) at 200 ppm (Chilo suppressalis)	mortality at 12.5 ppm (Plutella xylostella)	mortality at 3.125 ppm (Diabrotica balteata)	melting point	percent effect (mortality or growth inhibition) at 200 ppm (Euschistus heros)
CC(Nc1ncnc2c(C(F)(F)F)cc(Cl)cc12)c1nccnc1-c1ncsn1 (stereo not shown) [P13, 6-chloro-N-[1-[3-(1,2,4-thiadiazol-3-yl)pyrazin-2-yl]ethyl]-8-(trifluoromethyl)quinazolin-4-amine]	≥ 80%	≥ 80%	≥ 80%	–	–	–	–	–
C[C@H](Nc1nc(=O)[nH]c2c(Br)cc(C(F)(F)F)cc12)c1ncnn1-c1ncc(C#N)s1 [P2, 2-[5-[(1S)-1-[[8-bromo-2-oxo-6-(trifluoromethyl)-1H-quinazolin-4-yl]amino]ethyl]-1,2,4-triazol-1-yl]thiazole-5-carbonitrile]	≥ 80%	–	≥ 80%	≥ 80%	–	–	–	–
CC(Nc1ncnc2c(C(F)(F)F)cc(C(F)(F)F)cc12)c1nccnc1-c1ncc(Br)s1 (stereo not shown) [P8, N-[1-[3-(5-bromothiazol-2-yl)pyrazin-2-yl]ethyl]-6,8-bis(trifluoromethyl)quinazolin-4-amine]	≥ 80%	≥ 80%	–	≥ 80%	–	–	–	–
CC(Nc1ncnc2c(C(F)(F)F)cc(Cl)cc12)c1nccnc1-c1ccc(C#N)cn1 (stereo not shown) [P.118, reference compound]	–	–	–	–	0%	0%	–	–
CC(Nc1nc(Cl)nc2c(Br)cc(C(F)(F)F)cc12)c1nccnc1-c1ncc(Br)s1 (stereo not shown) [P3, 8-bromo-N-[1-[3-(5-bromothiazol-2-yl)pyrazin-2-yl]ethyl]-2-chloro-6-(trifluoromethyl)quinazolin-4-amine]	–	–	–	–	–	–	197 to 199 °C	–
CC(Nc1nc(=O)[nH]c2c(Br)cc(C(F)(F)F)cc12)c1nccnc1-c1ncc(C#N)s1 (stereo not shown) [P1, 2-[3-[1-[[8-bromo-2-oxo-6-(trifluoromethyl)-1H-quinazolin-4-yl]amino]ethyl]pyrazin-2-yl]thiazole-5-carbonitrile]	≥ 80%	≥ 80%	–	≥ 80%	–	–	–	–
C[C@@H](c1ncnn1-c1ncc(C#N)s1)N(C)c1ncnc2c(C(F)(F)F)cc(Cl)cc12 [P11, 2-[5-[(1S)-1-[[6-chloro-8-(trifluoromethyl)quinazolin-4-yl]-methyl-amino]ethyl]-1,2,4-triazol-1-yl]thiazole-5-carbonitrile]	≥ 80%	≥ 80%	≥ 80%	≥ 80%	–	–	–	–
CC(Nc1ncnc2c(C(F)(F)F)cc(Cl)cc12)c1nccnc1-c1ncc(Br)s1 (stereo not shown) [P6, N-[1-[3-(5-bromothiazol-2-yl)pyrazin-2-yl]ethyl]-6-chloro-8-(trifluoromethyl)quinazolin-4-amine]	–	≥ 80%	–	≥ 80%	–	–	–	–
C[C@H](Nc1ncnc2c(Cl)cc(S(=O)(=O)C(F)(F)F)cc12)c1ncnn1-c1ncc(C#N)s1 [P22, 2-[5-[(1S)-1-[[8-chloro-6-(trifluoromethylsulfonyl)quinazolin-4-yl]amino]ethyl]-1,2,4-triazol-1-yl]thiazole-5-carbonitrile]	≥ 80%	≥ 80%	≥ 80%	≥ 80%	–	–	–	–
CC(Nc1ncnc2c(Br)cc(Br)cc12)c1nccnc1-c1ncsn1 (stereo not shown) [P16, 6,8-dibromo-N-[1-[3-(1,2,4-thiadiazol-3-yl)pyrazin-2-yl]ethyl]quinazolin-4-amine]	≥ 80%	≥ 80%	≥ 80%	–	–	–	–	–
CC(Nc1ncnc2c(C(F)(F)F)cc(Cl)cc12)c1nccnc1-c1ncc(C#N)s1 (stereo not shown) [P5, 2-[3-[1-[[6-chloro-8-(trifluoromethyl)quinazolin-4-yl]amino]ethyl]pyrazin-2-yl]thiazole-5-carbonitrile]	≥ 80%	≥ 80%	≥ 80%	≥ 80%	50%	100%	–	–
CC(Nc1ncnc2c(Br)cc(Br)cc12)c1nccnc1-c1ncc(C#N)s1 (stereo not shown) [P19, 2-[3-[1-[(6,8-dibromoquinazolin-4-yl)amino]ethyl]pyrazin-2-yl]thiazole-5-carbonitrile]	≥ 80%	≥ 80%	≥ 80%	≥ 80%	–	–	–	–
CC(Nc1ncnc2c(Cl)cc(C(F)(F)F)cc12)c1nccnc1-c1ncc(C#N)s1 (stereo not shown) [P12, 2-[3-[1-[[8-chloro-6-(trifluoromethyl)quinazolin-4-yl]amino]ethyl]pyrazin-2-yl]thiazole-5-carbonitrile]	≥ 80%	≥ 80%	≥ 80%	≥ 80%	–	–	–	–
C[C@H](Nc1ncnc2c(C(F)(F)F)cc(Cl)cc12)c1ncnn1-c1ncc(C#N)s1 [P10, 2-[5-[(1S)-1-[[6-chloro-8-(trifluoromethyl)quinazolin-4-yl]amino]ethyl]-1,2,4-triazol-1-yl]thiazole-5-carbonitrile]	≥ 80%	≥ 80%	≥ 80%	≥ 80%	–	–	–	≥ 80%
CC(Nc1ncnc2c(C(F)(F)F)cc(C(F)(F)F)cc12)c1nccnc1-c1ncc(C#N)s1 (stereo not shown) [P7, 2-[3-[1-[[6,8-bis(trifluoromethyl)quinazolin-4-yl]amino]ethyl]pyrazin-2-yl]thiazole-5-carbonitrile]	≥ 80%	≥ 80%	≥ 80%	≥ 80%	–	–	–	–
C[C@@H](c1ncnn1-c1ncc(C#N)s1)N(C)c1ncnc2c(Cl)cc(C(F)(F)F)cc12 [P17, 2-[5-[(1S)-1-[[8-chloro-6-(trifluoromethyl)quinazolin-4-yl]-methyl-amino]ethyl]-1,2,4-triazol-1-yl]thiazole-5-carbonitrile]	≥ 80%	≥ 80%	≥ 80%	≥ 80%	–	–	–	≥ 80%
C[C@H](Nc1nc(Cl)nc2c(Br)cc(C(F)(F)F)cc12)c1ncnn1-c1ncc(C#N)s1 [P9, 2-[5-[(1S)-1-[[8-bromo-2-chloro-6-(trifluoromethyl)quinazolin-4-yl]amino]ethyl]-1,2,4-triazol-1-yl]thiazole-5-carbonitrile]	≥ 80%	≥ 80%	–	≥ 80%	–	–	–	–
CC(Nc1ncnc2c(Cl)cc(C(F)(F)F)cc12)c1nccnc1-c1ncsn1 (stereo not shown) [P18, 8-chloro-N-[1-[3-(1,2,4-thiadiazol-3-yl)pyrazin-2-yl]ethyl]-6-(trifluoromethyl)quinazolin-4-amine]	≥ 80%	≥ 80%	–	–	–	–	–	–
CC(Nc1nc(=O)[nH]c2c(Br)cc(C(F)(F)F)cc12)c1nccnc1-c1ncc(Br)s1 (stereo not shown) [P4, 8-bromo-4-[1-[3-(5-bromothiazol-2-yl)pyrazin-2-yl]ethylamino]-6-(trifluoromethyl)-1H-quinazolin-2-one]	≥ 80%	≥ 80%	–	≥ 80%	–	–	–	–
